Source: ChEMBL document CHEMBL5550083, “Structural optimization of a lysine demethylase 5 inhibitor for improvement of its cellular activity” (Bioorg Med Chem, 2024)
Each block holds one compound with its values, some of them ahead of it. Active and inactive are the calls of the source. No cut-off for these calls is given here.

Tests used:
[1] = molecular target: T1, Lysine-specific demethylase 5B (Homo sapiens, UniProt Q9UGL1); assay: Inhibition of KDM5B (unknown origin) at 10 nM incubated for 2 hrs by Alphascreen assay
[2] = molecular target: T1, Lysine-specific demethylase 5B; assay: Inhibition of KDM5B (unknown origin) incubated for 2 hrs by Alphascreen assay
[3] = molecular target: Lysine-specific demethylase 5A (Homo sapiens, UniProt P29375); assay: Inhibition of KDM5A (unknown origin) incubated for 2 hrs by Alphascreen assay
[4] = molecular target: Lysine-specific demethylase 5C (Homo sapiens, UniProt P41229); assay: Inhibition of KDM5C (unknown origin) incubated for 2 hrs by Alphascreen assay
[5] = molecular target: T2, Lysine-specific demethylase 3A (Homo sapiens, UniProt Q9Y4C1); assay: Inhibition of KDM3A (unknown origin) incubated for 2 hrs by Alphascreen assay
T2 sequence (Q9Y4C1 whole entry): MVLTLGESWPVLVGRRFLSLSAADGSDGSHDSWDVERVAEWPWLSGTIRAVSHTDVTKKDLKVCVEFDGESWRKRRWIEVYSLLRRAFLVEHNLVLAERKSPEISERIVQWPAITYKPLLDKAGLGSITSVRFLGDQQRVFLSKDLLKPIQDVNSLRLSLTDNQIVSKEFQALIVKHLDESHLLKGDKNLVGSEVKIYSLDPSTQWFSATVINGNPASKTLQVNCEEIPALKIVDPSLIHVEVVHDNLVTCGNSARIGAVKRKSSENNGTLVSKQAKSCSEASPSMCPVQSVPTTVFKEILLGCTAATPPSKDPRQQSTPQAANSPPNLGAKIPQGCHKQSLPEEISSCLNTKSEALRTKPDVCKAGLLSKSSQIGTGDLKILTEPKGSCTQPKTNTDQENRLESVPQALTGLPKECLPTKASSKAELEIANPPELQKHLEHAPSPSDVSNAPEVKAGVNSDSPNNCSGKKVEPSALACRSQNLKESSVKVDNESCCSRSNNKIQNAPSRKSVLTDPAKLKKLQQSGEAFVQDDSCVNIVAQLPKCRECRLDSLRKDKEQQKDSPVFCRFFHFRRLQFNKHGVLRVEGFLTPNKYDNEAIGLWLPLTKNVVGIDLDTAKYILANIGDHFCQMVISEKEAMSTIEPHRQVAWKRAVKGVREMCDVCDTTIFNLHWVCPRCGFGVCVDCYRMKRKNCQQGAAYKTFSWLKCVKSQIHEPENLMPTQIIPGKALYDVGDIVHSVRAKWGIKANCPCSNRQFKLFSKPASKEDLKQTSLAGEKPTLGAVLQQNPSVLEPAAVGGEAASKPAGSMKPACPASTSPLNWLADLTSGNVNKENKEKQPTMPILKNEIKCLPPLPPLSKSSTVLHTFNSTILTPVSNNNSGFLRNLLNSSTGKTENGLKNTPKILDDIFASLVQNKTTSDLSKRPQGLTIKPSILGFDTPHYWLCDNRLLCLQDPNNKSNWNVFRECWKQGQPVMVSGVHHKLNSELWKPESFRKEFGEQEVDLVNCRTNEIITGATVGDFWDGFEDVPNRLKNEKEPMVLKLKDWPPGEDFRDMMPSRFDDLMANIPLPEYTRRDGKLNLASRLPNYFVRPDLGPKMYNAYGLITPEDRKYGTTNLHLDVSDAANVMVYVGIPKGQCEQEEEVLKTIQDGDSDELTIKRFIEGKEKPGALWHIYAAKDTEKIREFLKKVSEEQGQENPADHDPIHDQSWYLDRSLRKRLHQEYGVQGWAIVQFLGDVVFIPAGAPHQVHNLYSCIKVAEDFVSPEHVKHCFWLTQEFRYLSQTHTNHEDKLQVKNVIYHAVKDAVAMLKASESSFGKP

[6] = molecular target: T3, Lysine-specific demethylase 4A (Homo sapiens, UniProt O75164); assay: Inhibition of KDM4A (unknown origin) incubated for 2 hrs by Alphascreen assay
T3 sequence (O75164 whole entry): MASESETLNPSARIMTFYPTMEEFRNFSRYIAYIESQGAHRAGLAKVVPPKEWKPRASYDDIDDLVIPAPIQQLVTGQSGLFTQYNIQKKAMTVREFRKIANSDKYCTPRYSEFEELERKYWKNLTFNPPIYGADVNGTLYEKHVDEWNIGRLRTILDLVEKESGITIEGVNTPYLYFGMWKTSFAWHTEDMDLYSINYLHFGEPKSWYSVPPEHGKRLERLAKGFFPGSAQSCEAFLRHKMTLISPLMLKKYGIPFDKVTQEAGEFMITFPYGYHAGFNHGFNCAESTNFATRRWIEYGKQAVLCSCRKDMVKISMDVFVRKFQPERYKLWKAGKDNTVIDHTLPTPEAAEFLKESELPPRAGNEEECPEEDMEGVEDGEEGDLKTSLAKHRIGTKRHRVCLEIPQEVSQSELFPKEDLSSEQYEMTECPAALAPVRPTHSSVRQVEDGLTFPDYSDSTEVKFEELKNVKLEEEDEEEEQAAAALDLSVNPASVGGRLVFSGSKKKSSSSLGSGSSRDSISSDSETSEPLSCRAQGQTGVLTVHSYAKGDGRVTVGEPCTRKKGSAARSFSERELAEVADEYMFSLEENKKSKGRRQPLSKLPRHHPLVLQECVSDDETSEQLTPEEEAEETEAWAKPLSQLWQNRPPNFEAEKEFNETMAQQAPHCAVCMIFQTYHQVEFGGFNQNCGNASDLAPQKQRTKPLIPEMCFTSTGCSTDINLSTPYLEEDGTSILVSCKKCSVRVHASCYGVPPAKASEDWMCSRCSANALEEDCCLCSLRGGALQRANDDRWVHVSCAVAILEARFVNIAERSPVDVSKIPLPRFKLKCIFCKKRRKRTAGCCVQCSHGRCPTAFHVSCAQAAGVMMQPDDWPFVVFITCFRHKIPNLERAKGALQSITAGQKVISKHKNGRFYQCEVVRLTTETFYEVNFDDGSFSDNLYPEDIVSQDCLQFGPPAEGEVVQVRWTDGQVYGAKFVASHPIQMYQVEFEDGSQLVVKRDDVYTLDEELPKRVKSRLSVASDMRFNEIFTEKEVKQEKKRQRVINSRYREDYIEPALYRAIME

[7] = molecular target: Lysine-specific demethylase 6B (Homo sapiens, UniProt O15054); assay: Inhibition of KDM6B (unknown origin) incubated for 2 hrs by Alphascreen assay
[8] = Apparent permeability of the compound at 100 uM incubated for 4 hrs by PAMPA assay; format: ADME
[9] = Lipophilicity, log D of the compound in PBS at 100 uM at pH 7.4 incubated for 20 mins by UPLC analysis; format: physicochemical
A549 [10] = assay: Inhibition of KDM5 in human A549 cells assessed as increase in H3K4me3 level at 400 nM by Western blot analysis; format: cell-based; settings: time 1-18 hrs, TDE = time-dependent effect
A549 [11] = assay: Inhibition of KDM5 in human A549 cells assessed as increase in H3K4me3 level at 400 nM incubated for 18 hrs by Western blot analysis; format: cell-based
A549 [12] = assay: Inhibition of KDM5 in human A549 cells assessed as increase in H3K4me3 level incubated for 18 hrs by Western blot analysis; format: cell-based; settings: dose 100-400 nM
A549 [13] = assay: Inhibition of KDM4 in human A549 cells assessed as increase in H3K9me3 level at 100 to 400 nM incubated for 18 hrs by Western blot analysis; format: cell-based; settings: dose 100-400 nM
A549 [14] = assay: Inhibition of KDM6 in human A549 cells assessed as increase in H3K27me3 level at 100 to 400 nM incubated for 18 hrs by Western blot analysis; format: cell-based; settings: dose 100-400 nM

T1 sequence (Q9UGL1 whole entry): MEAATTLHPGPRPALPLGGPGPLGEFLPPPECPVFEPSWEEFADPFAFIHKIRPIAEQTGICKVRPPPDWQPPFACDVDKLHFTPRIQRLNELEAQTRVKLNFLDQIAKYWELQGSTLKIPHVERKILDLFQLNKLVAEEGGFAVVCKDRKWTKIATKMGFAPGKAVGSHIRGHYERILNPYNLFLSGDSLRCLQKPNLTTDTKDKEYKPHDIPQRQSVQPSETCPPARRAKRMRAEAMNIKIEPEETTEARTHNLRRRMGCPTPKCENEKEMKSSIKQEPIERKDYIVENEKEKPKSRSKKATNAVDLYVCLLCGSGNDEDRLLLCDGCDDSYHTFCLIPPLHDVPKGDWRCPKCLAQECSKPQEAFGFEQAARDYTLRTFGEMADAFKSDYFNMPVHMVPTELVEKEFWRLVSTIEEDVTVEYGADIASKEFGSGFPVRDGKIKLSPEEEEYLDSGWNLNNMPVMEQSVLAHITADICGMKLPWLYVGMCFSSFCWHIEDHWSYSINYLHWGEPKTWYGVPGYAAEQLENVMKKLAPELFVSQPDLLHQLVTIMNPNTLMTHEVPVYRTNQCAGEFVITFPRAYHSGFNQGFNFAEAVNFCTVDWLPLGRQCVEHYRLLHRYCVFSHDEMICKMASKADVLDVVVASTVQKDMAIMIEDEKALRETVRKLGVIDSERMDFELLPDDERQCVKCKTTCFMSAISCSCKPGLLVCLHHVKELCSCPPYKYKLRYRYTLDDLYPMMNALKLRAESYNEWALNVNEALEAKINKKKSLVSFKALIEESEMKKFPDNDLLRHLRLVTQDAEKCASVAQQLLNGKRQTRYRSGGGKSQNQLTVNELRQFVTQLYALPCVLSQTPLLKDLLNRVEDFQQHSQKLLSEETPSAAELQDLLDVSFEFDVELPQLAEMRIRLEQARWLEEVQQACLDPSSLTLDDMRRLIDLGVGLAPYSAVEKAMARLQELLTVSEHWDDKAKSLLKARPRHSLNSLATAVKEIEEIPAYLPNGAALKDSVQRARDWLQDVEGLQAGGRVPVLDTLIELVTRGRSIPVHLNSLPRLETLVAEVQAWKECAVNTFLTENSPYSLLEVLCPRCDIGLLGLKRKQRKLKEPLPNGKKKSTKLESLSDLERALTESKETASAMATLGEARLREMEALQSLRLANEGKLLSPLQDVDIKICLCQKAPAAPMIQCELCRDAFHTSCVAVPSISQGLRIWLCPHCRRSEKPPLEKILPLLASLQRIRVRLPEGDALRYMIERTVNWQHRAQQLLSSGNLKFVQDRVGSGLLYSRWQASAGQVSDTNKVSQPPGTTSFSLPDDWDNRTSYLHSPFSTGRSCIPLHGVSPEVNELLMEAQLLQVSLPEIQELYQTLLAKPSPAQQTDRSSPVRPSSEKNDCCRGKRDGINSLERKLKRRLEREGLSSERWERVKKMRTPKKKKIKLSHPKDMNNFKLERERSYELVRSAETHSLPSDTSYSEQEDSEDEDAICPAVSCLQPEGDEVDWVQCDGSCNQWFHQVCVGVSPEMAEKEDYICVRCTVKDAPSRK
Sequence of Lysine-specific demethylase 5A (P29375 whole entry): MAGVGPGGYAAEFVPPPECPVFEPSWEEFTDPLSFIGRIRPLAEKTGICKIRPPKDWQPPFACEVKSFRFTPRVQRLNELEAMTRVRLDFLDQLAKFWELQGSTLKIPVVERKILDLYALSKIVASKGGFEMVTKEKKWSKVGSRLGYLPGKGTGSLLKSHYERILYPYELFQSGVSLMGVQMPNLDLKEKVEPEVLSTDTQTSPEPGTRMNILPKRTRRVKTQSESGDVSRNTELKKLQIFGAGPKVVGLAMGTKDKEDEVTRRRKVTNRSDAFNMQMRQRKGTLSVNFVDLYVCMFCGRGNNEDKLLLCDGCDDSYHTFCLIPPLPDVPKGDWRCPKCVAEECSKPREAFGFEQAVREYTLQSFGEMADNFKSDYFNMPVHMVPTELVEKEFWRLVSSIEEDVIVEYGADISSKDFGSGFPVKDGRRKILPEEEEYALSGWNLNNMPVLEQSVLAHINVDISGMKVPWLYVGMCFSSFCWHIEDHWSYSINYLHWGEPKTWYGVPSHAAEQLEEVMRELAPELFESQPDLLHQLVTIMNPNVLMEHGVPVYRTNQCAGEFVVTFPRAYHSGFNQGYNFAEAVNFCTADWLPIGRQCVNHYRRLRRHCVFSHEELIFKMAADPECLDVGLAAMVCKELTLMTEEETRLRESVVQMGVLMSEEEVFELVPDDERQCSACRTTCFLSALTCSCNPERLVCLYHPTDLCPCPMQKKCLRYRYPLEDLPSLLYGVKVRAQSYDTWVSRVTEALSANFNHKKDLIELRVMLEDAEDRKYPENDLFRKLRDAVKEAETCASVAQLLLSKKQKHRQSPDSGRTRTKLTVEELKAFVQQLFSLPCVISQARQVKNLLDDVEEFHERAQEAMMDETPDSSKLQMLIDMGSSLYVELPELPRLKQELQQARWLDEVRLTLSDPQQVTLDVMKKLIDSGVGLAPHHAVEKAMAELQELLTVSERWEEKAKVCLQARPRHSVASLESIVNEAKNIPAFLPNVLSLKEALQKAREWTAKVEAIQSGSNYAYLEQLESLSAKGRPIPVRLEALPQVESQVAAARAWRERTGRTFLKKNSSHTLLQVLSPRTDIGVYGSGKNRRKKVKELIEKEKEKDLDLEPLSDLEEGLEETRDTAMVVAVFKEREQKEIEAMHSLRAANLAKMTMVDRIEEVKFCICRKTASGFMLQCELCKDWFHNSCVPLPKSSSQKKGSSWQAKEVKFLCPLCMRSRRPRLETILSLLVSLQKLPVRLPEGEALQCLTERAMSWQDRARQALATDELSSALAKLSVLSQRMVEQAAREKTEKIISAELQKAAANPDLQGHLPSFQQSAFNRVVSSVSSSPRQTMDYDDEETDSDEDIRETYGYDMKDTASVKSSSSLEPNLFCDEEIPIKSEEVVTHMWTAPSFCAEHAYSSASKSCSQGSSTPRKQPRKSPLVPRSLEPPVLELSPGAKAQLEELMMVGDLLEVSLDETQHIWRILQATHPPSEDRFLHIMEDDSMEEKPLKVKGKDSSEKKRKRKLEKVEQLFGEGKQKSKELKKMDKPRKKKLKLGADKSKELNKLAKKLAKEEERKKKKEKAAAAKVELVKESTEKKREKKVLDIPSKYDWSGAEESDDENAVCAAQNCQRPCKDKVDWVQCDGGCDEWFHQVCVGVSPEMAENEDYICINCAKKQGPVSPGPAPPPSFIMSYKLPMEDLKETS
Sequence of Lysine-specific demethylase 6B (O15054 whole entry): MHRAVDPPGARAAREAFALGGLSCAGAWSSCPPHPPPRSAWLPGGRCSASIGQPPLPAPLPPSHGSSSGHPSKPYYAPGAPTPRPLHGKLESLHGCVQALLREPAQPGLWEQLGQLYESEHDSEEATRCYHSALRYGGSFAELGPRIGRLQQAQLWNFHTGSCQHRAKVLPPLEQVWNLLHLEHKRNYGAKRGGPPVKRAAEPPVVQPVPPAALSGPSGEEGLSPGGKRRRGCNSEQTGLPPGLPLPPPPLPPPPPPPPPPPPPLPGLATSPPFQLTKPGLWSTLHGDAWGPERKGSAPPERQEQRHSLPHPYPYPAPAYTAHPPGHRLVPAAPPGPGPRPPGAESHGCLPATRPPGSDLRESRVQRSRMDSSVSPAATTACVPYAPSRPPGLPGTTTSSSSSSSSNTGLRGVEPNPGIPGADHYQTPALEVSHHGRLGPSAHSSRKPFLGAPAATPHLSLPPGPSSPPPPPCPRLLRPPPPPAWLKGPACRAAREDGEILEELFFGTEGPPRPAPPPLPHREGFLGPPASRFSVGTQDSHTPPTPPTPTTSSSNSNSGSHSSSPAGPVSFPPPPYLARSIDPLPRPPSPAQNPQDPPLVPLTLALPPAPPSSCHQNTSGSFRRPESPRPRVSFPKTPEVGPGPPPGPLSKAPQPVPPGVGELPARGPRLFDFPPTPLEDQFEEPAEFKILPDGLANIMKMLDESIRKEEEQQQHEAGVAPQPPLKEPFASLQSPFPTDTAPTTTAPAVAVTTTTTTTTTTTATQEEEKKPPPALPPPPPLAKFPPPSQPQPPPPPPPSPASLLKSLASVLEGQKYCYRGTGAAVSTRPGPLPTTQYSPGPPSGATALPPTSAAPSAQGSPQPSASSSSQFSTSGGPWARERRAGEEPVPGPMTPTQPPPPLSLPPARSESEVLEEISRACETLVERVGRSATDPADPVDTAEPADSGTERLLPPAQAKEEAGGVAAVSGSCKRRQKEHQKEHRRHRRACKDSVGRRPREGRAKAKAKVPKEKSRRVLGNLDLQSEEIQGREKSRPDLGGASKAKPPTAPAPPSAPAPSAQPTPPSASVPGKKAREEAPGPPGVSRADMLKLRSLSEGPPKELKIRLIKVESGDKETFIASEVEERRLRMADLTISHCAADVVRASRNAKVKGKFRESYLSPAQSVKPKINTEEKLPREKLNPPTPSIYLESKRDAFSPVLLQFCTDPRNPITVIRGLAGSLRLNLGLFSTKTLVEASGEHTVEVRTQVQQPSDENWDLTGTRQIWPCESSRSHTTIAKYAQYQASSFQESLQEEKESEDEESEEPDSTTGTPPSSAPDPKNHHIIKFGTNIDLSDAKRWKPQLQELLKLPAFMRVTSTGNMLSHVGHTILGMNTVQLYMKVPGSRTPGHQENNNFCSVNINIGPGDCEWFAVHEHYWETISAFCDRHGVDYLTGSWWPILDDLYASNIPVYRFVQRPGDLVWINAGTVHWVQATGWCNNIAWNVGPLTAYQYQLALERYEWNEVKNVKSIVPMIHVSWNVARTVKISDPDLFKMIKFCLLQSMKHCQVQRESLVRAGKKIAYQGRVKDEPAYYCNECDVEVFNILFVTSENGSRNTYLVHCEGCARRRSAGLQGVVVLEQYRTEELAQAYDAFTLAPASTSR

inhibition activity call [1]: Active
SMILES: CCCN(CCC)CCN(CC)C(=O)CNCc1cc(C(=O)O)ccn1

inhibition activity call [1]: Active
SMILES: CCN(CCN(C(C)C)C(C)C)C(=O)CNCc1cc(C(=O)O)ccn1

inhibition activity call [1]: Active
IC50 [2]: 8.42 nM
SMILES: CCN(CCN(C)Cc1ccccc1)C(=O)CNCc1cc(C(=O)O)ccn1

IC50 [3]: 1.22 nM
IC50 [4]: 13.6 nM
IC50 [5]: > 50000 nM
IC50 [6]: 389 nM
IC50 [7]: > 5000 nM
SMILES: CCCCN(C)CCN(CC)C(=O)CNCc1cc(C(=O)O)ccn1

Papp at 4 h, 100 µM [8]: 3.9 ×10⁻⁶ cm/s
SMILES: CC(C)NCC(O)COc1cccc2ccccc12 (stereo not given) [PROPRANOLOL]

inhibition activity call [1]: Active
IC50 [2]: 3.05 nM
SMILES: CCN(CCN(C)C(C)C)C(=O)CNCc1cc(C(=O)O)ccn1

Papp at 4 h, 100 µM [8]: 0.6 ×10⁻⁶ cm/s
logD at 20 min, 100 µM [9]: 2.2
SMILES: CCCCN(C)CCN(CC)C(=O)CNCc1cc(C(=O)OCC)ccn1
inhibition (A549 [10]): Tde
inhibition (A549 [11]): Active
inhibition (A549 [12]): Dose-Dependent Effect
inhibition (A549 [13]): inactive
inhibition (A549 [14]): inactive

inhibition activity call [1]: Active
SMILES: CCCCN(CCCC)CCN(CC)C(=O)CNCc1cc(C(=O)O)ccn1

inhibition activity call [1]: Active
SMILES: CCN(CCN(Cc1ccccc1)Cc1ccccc1)C(=O)CNCc1cc(C(=O)O)ccn1

IC50 [2]: 207 nM
Papp at 4 h, 100 µM [8]: 0.1 ×10⁻⁶ cm/s
logD at 20 min, 100 µM [9]: 1.5
SMILES: CCOC(=O)c1ccnc(CNCC(=O)N(CC)CCN(C)C)c1

inhibition activity call [1]: Active
SMILES: CCN(CC)CCN(CC)C(=O)CNCc1cc(C(=O)O)ccn1

inhibition activity call [1]: Active
IC50 [2]: 6.32 nM
SMILES: CCCN(C)CCN(CC)C(=O)CNCc1cc(C(=O)O)ccn1

inhibition activity call [1]: Active
IC50 [2]: 6.94 nM
SMILES: CCN(C)CCN(CC)C(=O)CNCc1cc(C(=O)O)ccn1

IC50 [2]: 2.23 nM
IC50 [3]: 1.42 nM
IC50 [4]: 9.92 nM
IC50 [5]: > 50000 nM
IC50 [6]: 172 nM
IC50 [7]: > 5000 nM
SMILES: CCN(CCN(C)C)C(=O)CNCc1cc(C(=O)O)ccn1
